Reference: article PMC12631721, “Preclinical Screening Platform Identifies Azatadine‐Dimaleate as a Potent Repurposed Therapeutic Against SARS‐CoV‐2 Infection” (Journal of Medical Virology, 2025)
“And” between values parts separate entries of the source, which are not always exact repeats. Equal entries are not always repeated. “Also recorded” adds a separate entry of the source. Where two headings read alike, the source gives them in different places.

How the values were obtained:
[1] = tested on: SARS‐CoV‐2; assay: CPE-based high-throughput screen (CellTox Green) in Vero cells; assay type: cell-based
[2] = tested on: SARS‐CoV‐2; assay: CPE-based high-throughput screen (CellTox Green) in Calu‐3 cells; assay type: cell-based
[3] = tested on: SARS‐CoV‐2; assay: microbe, parasite or virus in culture; assay type: cell-based
[4] = tested on: SARS‐CoV‐2; assay type: cell-based; conditions: Calu‐3 pretreated 24 h before infection, MOI = 0.1, plaque assay
[5] = tested on: SARS‐CoV‐2; assay: Viral NSP12 RNA by RT‐qPCR in Calu‐3 cells; assay type: cell-based; conditions: Calu‐3, RT‐qPCR
Experimental: (A) Cell viability assessment in uninfected Calu‐3 cells treated with DMSO control, Azatadine‐Dimaleate (25 µM), Remdesivir (1 µM), or the combination (Remdesivir 1 µM + Azatadine 25 µM) for 72 h. […] (B) Release of infectious virus was quantified by plaque assay. Calu‐3 cells were pretreated with Azatadine‐Dimaleate (5 & 25 µM) or Remdesivir (1 µM) 24 h before infection with SARS‐CoV‐2 PHE (MOI = 0.1). (C) Levels of viral NSP12 RNA was measured by RT‐qPCR following treatment with Azatadine‐Dimaleate at (5 & 25 µM) or Remdesivir (1 µM) 24 h before infection with SARS‐CoV‐2 (PHE MOI = 0.1). Data bars represent mean ± SEM of n = 3 independent experiments. Statistical analysis by one‐way ANOVA, ***p ≤ 0.001 vs DMSO control. […] DMSO alone was used as a negative control. At 72 hpi viral titres were determined by plaque assay. Data points represent an average of 3 separate repeat experiments ±SEM.
For RNA extraction, cultures were incubated with 400 µL of Lysis/Binding buffer (High Pure Isolation Kit; Roche) for 5 min at room temperature. […] RNA was quantified by spectrophotometry and 1 µg was transcribed into cDNA using The High‐Capacity cDNA Reverse Transcription Kit (Applied Biosystems, Thermo Fisher Scientific) in 0.2 mL PCR reaction tubes (Eppendorf). […] Ready‐made catalogue assays for a set of primers and probes (FAM labelled) (Thermofisher) specific for human genes involved in the innate immune response to SARS‐COV‐2 such as: IFNL1 (Assay ID: Hs00601677 g1, Cat. No:433118) IFNB (Assay ID:Hs01077958_s1, Cat. No. 4331182), ISG15 (Assay ID: Hs01921425 s1, catalogue no:4331182), IFIT1 (Hs03027069_s1, Cat no. 4331182), IL6 (Hs00174131_m1, Cat no. 4331182) and CXCL8/IL8 (Bt03211906_m1, Cat no. 4331182) were selected for analyses.
(§1) When performing qPCR the Roche probe mixes for the detection of TBP (Cat. No. 05189284001) and GAPDH (Assay ID: Hs02786624_g1, Cat. No:4331182) were used as references. The LightCycler® 480 Probes Master mix was used following the manufacturer's protocol to quantify the mRNA expression levels for all genes of interest. […]

[6] = tested on: SARS‐CoV‐2; assay: microbe, parasite or virus in culture; assay type: cell-based; conditions: for Improvement in potency in combination vs alone: Calu‐3, ratio of EC50 alone to EC50 in combination; for EC50: Severe acute respiratory syndrome coronavirus 2, Calu‐3, pretreated 24 h, PHE MOI = 0.1, 72 hpi, viral titres by plaque assay, read-out: EC50, drug alone
[7] = tested on: SARS‐CoV‐2; assay type: cell-based; conditions: WD‐PBECs; for Reduction in viral titers compared to DMSO (significance): Remdesivir 1 µM, Azatadine‐Dimaleate 25 µM, or combination 0.4 µM + 10 µM, 48, 72, 96 hpi
[8] = tested on: IFNL1, IFNB, IFIT1, ISG15, IL6, CXCL8/IL8; assay: Innate immune response gene expression by RT‐qPCR in infected WD‐PBECs; assay type: cell-based, human; conditions: 96 hpi, treatment from 24 hpi
Experimental: Figure 5 Azatadine‐Dimaleate modulates innate immune responses in WD‐PBEC cultures. RNA samples were harvested at 96 hpi from each condition in duplicate from WD‐PBECs and a panel of selected innate immune genes (IFNL1, IFNB, IFIT1, ISG15, IL‐6, CXCL8/IL8), were quantified using RT‐qPCR assay. The relative ratios for each gene were calculated in reference to a house keeping gene GAPDH using light cycler 96 software 1.1. The data value plotted for each donor in each condition is an average of 2 biological duplicate Transwells and four technical replicates. Where possible, statistical significance was determined using unpaired Student t‐test between DMSO control and individual treatments (*p ≤ 0.05, **p ≤ 0.01).
For RNA extraction, cultures were incubated with 400 µL of Lysis/Binding buffer (High Pure Isolation Kit; Roche) for 5 min at room temperature. […] RNA was quantified by spectrophotometry and 1 µg was transcribed into cDNA using The High‐Capacity cDNA Reverse Transcription Kit (Applied Biosystems, Thermo Fisher Scientific) in 0.2 mL PCR reaction tubes (Eppendorf). […]
as §1

[9] = tested on: SARS‐CoV‐2 LIV strain; assay type: in vivo, K18‐hACE2 mice; conditions: for Mean weight loss: Azatadine‐Dimaleate 10 mg/kg i.p. daily, remdesivir (as GS‐441524) 25 mg/kg daily, vehicle 12%; for Histopathology score: single animal shown in Fig. S5, 4 dpi, vehicle treated animal score 4
[10] = tested on: Calu‐3 cells; assay: Cell viability / cytotoxicity in uninfected Calu‐3 cells; conditions: 72 h, Azatadine‐Dimaleate 25 µM, Remdesivir 1 µM, or combination (1 µM + 25 µM)
[11] = tested on: SARS‐CoV‐2; set-up: method as in PMID 32366720; conditions: Vero cells; cited from earlier work
[12] = tested on: SARS‐CoV‐2; set-up: method as in PMID 37100830; conditions: clinical trial by Klussmann and colleagues; cited from earlier work
[13] = Severe acute respiratory syndrome coronavirus 2, Vero cells, 5 µM, drug 24 h before infection, MOI = 0.1, 72 hpi
[14] = Calu‐3 cells, 5 µM, drug 24 h before infection, MOI = 0.1, 72 hpi
[15] = Severe acute respiratory syndrome coronavirus 2, Calu‐3 cells, 5 µM, drug 24 h before infection, MOI = 0.1, 72 hpi
[16] = Severe acute respiratory syndrome coronavirus 2, Calu‐3 cells, PHE MOI = 0.1, 72 hpi, 7 serial 1 in 2 dilutions from 20 µM, read-out: EC50 (CPE inhibition)
[17] = Vero cells, 5 µM, drug 24 h before infection, MOI = 0.1, 72 hpi

Which results are given for CCN(CC)CCCC(C)Nc1ccnc2cc(Cl)ccc12 (centres unmarked) [Chloroquine]?
inhibition at 5 µM [1, 13]: 100%; % of CPE inhibition [2, 14]: negligible antiviral activity

Which results are given for CC(C)(C)[C@@H]1NC(=O)O[C@@H]2CCC[C@H]2OC/C=C/C(F)(F)c2nc3ccccc3nc2O[C@@H]2C[C@@H](C(=O)N[C@]3(C(=O)NS(=O)(=O)C4(C)CC4)C[C@H]3C(F)F)N(C2)C1=O [Glecaprevir]?
inhibition at 5 µM [1, 13]: 80 to 90%; inhibition at 5 µM [2, 15]: 80 to 90%

With CN1CCC(=C2c3ccccc3CCc3cccnc32)CC1 [Azatadine‐Dimaleate] as the compound, how does the inhibition at 5 µM [1, 13] read?
The inhibition at 5 µM was 88.5%.

What about the inhibition at 5 µM [2, 15] of the same compound?
Its inhibition at 5 µM is 97.6%.

What about the EC50 [3, 16] of the same compound?
Its EC50 is 4 µM.

What about the “Reduction in viral titres” value ([4]; 5 µM) of the same compound?
Its value is “approximately 100 fold”.

And the “Reduction in viral titres” value ([4]; 25 µM)?
The value was ~ 5,000 fold and > 5,000 fold.

And the “Reduction of viral NSP12 RNA levels relative to untreated controls” value ([5]; 5 µM)?
Its value is “approximately 50%”.

What about the “Suppression of viral NSP12 RNA levels” value ([5]; 25 µM) of the same compound?
The value was over 95%.

What about the “Improvement in potency in combination vs alone” value [6] of the same compound?
Its value is “twofold”.

And the EC50 [6]?
The EC50 was 4 µM.

And the “Lowering of peak viral titers compared to controls” value ([7]; 48 hpi)?
Its value is 1.4 log10.

And the “Lowering of peak viral titers compared to controls” value ([7]; 96 hpi)?
Its value is 2.33 log10.

What about the “Reduction in viral titers compared to DMSO (significance)” value [7] of the same compound?
Its value is “significantly reduced viral titers at 72 and 96 hpi”.

And the “Expression of innate immune response genes (IFNL1, IFNB, IFIT1, ISG15, IL6, CXCL8/IL8)” value [8]?
The value was “significant reductions in all except CXCL8/IL8”.

What about the “Reduction of viral antigen expression in lung (immuno‐stained area)” value ([9]; day 4 post infection, morphometric analysis of SARS‐CoV‐2 N antigen) of the same compound?
The value was “approximately 50%”.

What about the Mean weight loss ([9]; day 4 post infection) of the same compound?
Its Mean weight loss is 4%.

What about the “Infectious virus in lung by plaque assay vs vehicle” value ([9]; mouse, in vivo) of the same compound?
Its value is “statistical significance reached”.

What about the “Reduction of viral antigen expression in lung (immuno‐stained area)” value ([9]; mouse, in vivo) of the same compound?
The value was “halved”.

What about the Histopathology score [9] of the same compound?
The Histopathology score was 2.

And the “Cytotoxicity (cell viability)” value [10]?
Its value is “no discernible toxicity; also recorded: No cytotoxic effects”.

Which EC50 [3, 16] does the source give for CCC(CC)COC(=O)[C@H](C)N[P@](=O)(OC[C@H]1O[C@@](C#N)(c2ccc3c(N)ncnn23)[C@H](O)[C@@H]1O)Oc1ccccc1 [Remdesivir] here?
The EC50 was 0.6 µM.

What about the “Inhibitory activity on viral titres” value ([4]; 1 µM) of the same compound?
The value was “comparable inhibitory activity to 25 µM Azatadine‐Dimaleate”.

What about the “Suppression of viral NSP12 RNA levels” value ([5]; 1 µM) of the same compound?
Its value is over 95%.

What about the “Improvement in potency in combination vs alone” value [6] of the same compound?
The value was 2.4 fold.

And the EC50 [6]?
Its EC50 is 0.6 µM.

And the “Reduction in viral titers compared to DMSO (significance)” value [7]?
The value was “greatest reduction in viral titers”.

And the Mean weight loss ([9]; […])?
The Mean weight loss was “failed to prevent significant weight loss”.

And the “Pulmonary viral RNA load (qRT‐PCR) vs vehicle” value ([9]; mouse, in vivo)?
Its value is “reduction achieved statistical significance”.

And the Histopathology score [9]?
Its Histopathology score is 3.

And the “Cytotoxicity (cell viability)” value [10]?
The value was “No cytotoxic effects”.

For N#C[C@@]1(c2ccc3c(N)ncnn23)O[C@H](CO)[C@@H](O)[C@H]1O [GS‐441524], which inhibition at 5 µM ([1]; Severe acute respiratory syndrome coronavirus 2, Vero) is on record?
The inhibition at 5 µM was 80 to 90%.

And the inhibition at 5 µM ([2]; Severe acute respiratory syndrome coronavirus 2, Calu-3)?
The inhibition at 5 µM was 80 to 90%.

And the EC50 ([3]; Severe acute respiratory syndrome coronavirus 2, Calu-3, read-out: EC50 (CPE inhibition))?
The EC50 was 0.85 µM.

What does the source list for CCOC(=O)N1CCC(=C2c3ccc(Cl)cc3CCc3cccnc32)CC1 [Loratadine]?
% of CPE inhibition [1, 17]: negligible activity; % of CPE inhibition [2, 14]: negligible activity

With CC(C)n1nc(-c2ccc3oc(N)nc3c2)c2c(N)ncnc21 [Sapanisertib] as the compound, how does the inhibition at 5 µM [1, 13] read?
The inhibition at 5 µM was 80 to 90%.

And the inhibition at 5 µM [2, 15]?
Its inhibition at 5 µM is 80 to 90%.

With CS(=O)(=O)O.CS(=O)(=O)O.Cc1cccc(/C=N/Nc2cc(N3CCOCC3)nc(OCCc3ccccn3)n2)c1 [Apilimod (mesylate)] as the compound, how does the “% of CPE inhibition” value [1, 17] read?
Its value is 100%.

What about the “% of CPE inhibition” value [2, 14] of the same compound?
Its value is “negligible antiviral activity”.

What does the source list for CCN(CCO)CCCC(C)Nc1ccnc2cc(Cl)ccc12 (centres unmarked) [hydroxychloroquine]?
inhibition at 5 µM [1, 13]: 100%; % of CPE inhibition [2, 14]: negligible antiviral activity

Which results are given for c1ccc2c(c1)Sc1ccccc1N2CC1CN2CCC1CC2 (centres unmarked) [Mequitazine]?
% of CPE inhibition [1, 17]: modest efficacy in Vero cells only; IC50 [11]: 7.28 µM

For CN1CCCC(n2nc(Cc3ccc(Cl)cc3)c3ccccc3c2=O)CC1 (centres unmarked) [Azelastine], which “Viral load after nasal administration” value [12] is on record?
Its value is “significant viral load reduction”.
